PubChem BioAssay AID200 (DTP/NCI, 2004)
“And” between values parts separate entries of the source, which are not always exact repeats. Equal entries are not always repeated. Toxic doses and inconclusive results are not listed. Rule for the calls: active = survival T/C of 150% or more; inactive = T/C below 125% in these data.

System: B6C3F1 mice, B16 melanoma ip, median survival T/C
Test: NCI In Vivo Anticancer Drug Screen. Data for tumor model B16 Melanoma (intraperitoneal) in B6C3F1 mice
Conditions: endpoint: median survival time, schedule: Q01DX009 (ip), higher = longer survival
Method in brief: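 Tumor-bearing mice received test compound; a separate group got vehicle only. Survival was then compared, with results reported as treated over control.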

[1] = dose: 44.0 mg/kg/injection, vehicle: water
[2] = dose: 12.5 mg/kg/injection, vehicle: Klucel (hydroxypropylcellulose) (HPC)
[3] = dose: 25.0 mg/kg/injection, vehicle: Klucel (hydroxypropylcellulose) (HPC)
[4] = dose: 50.0 mg/kg/injection, vehicle: Klucel (hydroxypropylcellulose) (HPC)
[5] = dose: 100.0 mg/kg/injection, vehicle: Klucel (hydroxypropylcellulose) (HPC)
[6] = dose: 200.0 mg/kg/injection, vehicle: Klucel (hydroxypropylcellulose) (HPC)
[7] = dose: 50.0 mg/kg/injection, vehicle: saline with Tween-80
[8] = dose: 100.0 mg/kg/injection, vehicle: saline with Tween-80
[9] = dose: 25.0 mg/kg/injection, vehicle: distilled water + Tween-80
[10] = dose: 200.0 mg/kg/injection, vehicle: distilled water + Tween-80

Measured: T/C

COC1C(N)C(OC2C(Oc3cccc4c(O)c5c(=O)oc6ccc(C)c7c(=O)oc(c34)c5c67)OC(C)C(O)C2(C)O)OC(C)C1O (stereo not drawn)
active: dose: 1.09 mg/kg/injection, vehicle: DMSO 226 % of control | dose: 1.25 mg/kg/injection, vehicle: other 179 % of control | dose: 1.81 mg/kg/injection, vehicle: DMSO 255 % of control | dose: 2.5 mg/kg/injection, vehicle: other 227 % of control | dose: 3.0 mg/kg/injection, vehicle: DMSO 244 % of control | dose: 5.0 mg/kg/injection, vehicle: DMSO 326 % of control | dose: 5.0 mg/kg/injection, vehicle: other 227 % of control | dose: 8.4 mg/kg/injection, vehicle: DMSO 190 % of control | dose: 10.0 mg/kg/injection, vehicle: other 179 % of control

CCN(CC)CC[n+]1ccc2c(C)c3[nH]c4ccc(O)cc4c3c(C)c2c1
active: dose: 3.12 mg/kg/injection, vehicle: saline 175 % of control | dose: 6.25 mg/kg/injection, vehicle: saline 151 % of control and 171 % of control | dose: 6.25 mg/kg/injection, vehicle: suspension in saline 151 % of control

COC(C(=O)C(O)C(C)O)C1CC2C=C3C=C(OC4CC(OC5CC(O)C(OC)C(C)O5)C(OC(C)=O)C(C)O4)C(C)C(=O)C3=C(O)C2=C(O)C1OC1CC(OC2CC(OC3CC(C)(O)C(O)C(C)O3)C(O)C(C)O2)C(O)C(C)O1 (stereo not drawn)
active: dose: 4.0 mg/kg/injection, vehicle: saline with Tween-80 178 % of control | dose: 8.0 mg/kg/injection, vehicle: saline with Tween-80 178 % of control
inactive: dose: 0.25 mg/kg/injection, vehicle: saline with Tween-80 109 % of control | dose: 0.5 mg/kg/injection, vehicle: saline with Tween-80 120 % of control | dose: 1.0 mg/kg/injection, vehicle: saline with Tween-80 120 % of control

O=S(=O)(O)O
inactive: dose: 30.0 mg/kg/injection, vehicle: water 121 % of control and 91 % of control | [1] 108 % of control and 99 % of control | dose: 67.0 mg/kg/injection, vehicle: water 95 % of control and 102 % of control | dose: 100.0 mg/kg/injection, vehicle: water 97 % of control and 103 % of control

CC(=O)O[C@H]1C(=O)[C@@]2(C)C(C(OC(=O)c3ccccc3)[C@]3(O)CC(OC(=O)[C@H](OC(=O)CCC(=O)O)C(NC(=O)c4ccccc4)c4ccccc4)C(C)=C1C3(C)C)C1(OC(C)=O)COC1C[C@@H]2OC(=O)CCC(=O)O (stereo partly drawn)
active: [1] 166 % of control
inactive: dose: 2.75 mg/kg/injection, vehicle: sodium bicarbonate 109 % of control | dose: 2.75 mg/kg/injection, vehicle: water 120 % of control | dose: 5.5 mg/kg/injection, vehicle: sodium bicarbonate 113 % of control | dose: 5.5 mg/kg/injection, vehicle: water 114 % of control | dose: 11.0 mg/kg/injection, vehicle: sodium bicarbonate 124 % of control | dose: 22.0 mg/kg/injection, vehicle: sodium bicarbonate 105 % of control | dose: 22.0 mg/kg/injection, vehicle: water 109 % of control | dose: 44.0 mg/kg/injection, vehicle: sodium bicarbonate 114 % of control

C=C[Si]12OCCN(CCO1)CCO2
inactive: [2] 112 % of control and 96 % of control | [3] 95 % of control and 99 % of control | [4] 101 % of control | [5] 111 % of control and 95 % of control | [6] 93 % of control and 104 % of control

Nc1nc(-c2ccc(Cl)c([N+](=O)[O-])c2)c(Br)c(=O)[nH]1
inactive: dose: 18.25 mg/kg/injection, vehicle: saline with Tween-80 121 % of control | dose: 36.5 mg/kg/injection, vehicle: saline with Tween-80 118 % of control | dose: 73.0 mg/kg/injection, vehicle: saline with Tween-80 100 % of control | dose: 146.0 mg/kg/injection, vehicle: saline with Tween-80 100 % of control

O=C(N[C@H](CO)[C@H](O)c1ccc([N+](=O)[O-])cc1)C(Cl)Cl
inactive: [7] 117 % of control | [8] 103 % of control | dose: 200.0 mg/kg/injection, vehicle: saline with Tween-80 109 % of control | dose: 400.0 mg/kg/injection, vehicle: saline with Tween-80 97 % of control | dose: 800.0 mg/kg/injection, vehicle: saline with Tween-80 100 % of control

CCOC(=O)c1ccc(NC(=O)Nc2nncs2)cc1
inactive: dose: 6.25 mg/kg/injection, vehicle: distilled water + Tween-80 100 % of control | dose: 12.5 mg/kg/injection, vehicle: distilled water + Tween-80 110 % of control | [9] 115 % of control | dose: 50.0 mg/kg/injection, vehicle: distilled water + Tween-80 121 % of control | dose: 100.0 mg/kg/injection, vehicle: distilled water + Tween-80 121 % of control | [10] 105 % of control

Nc1ncnc2c1c1c(=O)[nH]c(=O)[nH]c1n2C1OC(CO)C(O)C1O (stereo not drawn)
active: [10] 172 % of control
inactive: [9] 123 % of control

CC1Oc2cc3c(-c4c(O)cc(O)c5c(O)c6c(cc45)OC(C)C(C)C6=O)c(O)cc(O)c3c(O)c2C(=O)C1C (stereo not drawn)
inactive: dose: 0.31 mg/kg/injection, vehicle: suspension in saline 117 % of control | dose: 0.62 mg/kg/injection, vehicle: suspension in saline 101 % of control | dose: 1.25 mg/kg/injection, vehicle: suspension in saline 109 % of control | dose: 2.5 mg/kg/injection, vehicle: suspension in saline 116 % of control

N=c1c(C(=O)OCc2ccccc2)ncc(CCl)n1O
inactive: dose: 25.0 mg/kg/injection, vehicle: saline with Tween-80 94 % of control | [7] 95 % of control | [8] 99 % of control

C=C(NC(=O)C(=C)NC(=O)c1csc(C2=NC3c4csc(n4)C4NC(=O)c5csc(n5)C(C(C)(O)C(C)O)NC(=O)C5CSC(=N5)/C(=C/C)NC(=O)C(C(C)O)NC(=O)c5csc(n5)C3(CC2)NC(=O)C(C)NC(=O)C(=C)NC(=O)C(=C)NC(=O)C(C(C)C)NC2C=Cc3c(C(C)O)cc(nc3C2O)C(=O)OC4C)n1)C(N)=O (stereo not drawn)
inactive: dose: 25.0 mg/kg/injection, vehicle: saline 121 % of control | dose: 50.0 mg/kg/injection, vehicle: saline 109 % of control | dose: 200.0 mg/kg/injection, vehicle: saline 121 % of control

O=c1ccn(C2OC(CO)C(O)C2O)c(=O)[nH]1 (stereo not drawn)
inactive: [2] 97 % of control | [3] 99 % of control | [4] 104 % of control | [5] 95 % of control | [6] 99 % of control | dose: 400.0 mg/kg/injection, vehicle: Klucel (hydroxypropylcellulose) (HPC) 102 % of control | dose: 800.0 mg/kg/injection, vehicle: Klucel (hydroxypropylcellulose) (HPC) 102 % of control

C/C(=N\NC(=O)c1ccncc1)c1ccc(Cl)cc1
inactive: dose: 1.25 mg/kg/injection, vehicle: saline 96 % of control | dose: 2.5 mg/kg/injection, vehicle: saline 98 % of control | dose: 5.0 mg/kg/injection, vehicle: saline 107 % of control

CN(C)CCNc1ccc(NCCN(C)C)c2c1C(=O)c1ccccc1C2=O
inactive: dose: 20.0 mg/kg/injection, vehicle: distilled water + Tween-80 117 % of control
